Our source for the MIC values is patent US9802901B2, “Antibacterial 2H-indazole derivatives” (priority 2013, dated 2017).

Converted amounts (≈) assume the structure as drawn.

Holding throughout (assay): Bacterial growth minimal inhibitory concentration (broth microdilution, CLSI M7-A7)
The subject of assay [1] is E. coli ATCC25922. It is filed as cell-based, Escherichia coli. As to conditions: Escherichia coli, ATCC25922; cation-adjusted Mueller-Hinton Broth, microdilution; quinolone-sensitive strain; read-out: MIC for E. coli ATCC25922. Here is the method: (§1) Minimal Inhibitory Concentrations (MICs; mg/L) were determined in cation-adjusted Mueller-Hinton Broth by a microdilution method following the description given in “Methods for Dilution Antimicrobial Susceptibility Tests for Bacteria that Grow Aerobically”, Approved standard, 7th ed., Clinical and Laboratory Standards Institute (CLSI) Document M7-A7, Wayne, Pa., USA (2006).
(§2) All Example compounds, except the compound of Example 62, were tested against several Gram-positive and Gram-negative bacteria. […] K. pneumoniae A-651 and Acinetobacter baumannii T6474 are multiply-resistant strains (in particular quinolone-resistant), while E. coli ATCC25922 and P. aeruginosa ATCC27853 are quinolone-sensitive strains.

In assay [2] the test system is P. aeruginosa ATCC27853. It counts as cell-based, Pseudomonas aeruginosa. The note with it: Pseudomonas aeruginosa, ATCC27853; cation-adjusted Mueller-Hinton Broth, microdilution; quinolone-sensitive strain; read-out: MIC for P. aeruginosa ATCC27853. The method, then: as §1, §2
Assay [3] relates to Acinetobacter baumannii T6474. It is filed as cell-based. As to conditions: Acinetobacter baumannii, T6474; cation-adjusted Mueller-Hinton Broth, microdilution; multiply-resistant (quinolone-resistant) strain; read-out: MIC for A. Baumannii T6474. Here is the method: as §1, §2
In assay [4] the test system is K. pneumoniae A-651. It is filed as cell-based, Klebsiella pneumoniae. As to conditions: Klebsiella pneumoniae, A651; cation-adjusted Mueller-Hinton Broth, microdilution; multiply-resistant (quinolone-resistant) strain; read-out: MIC for K. Pneumoniae A-651. The method, then: as §1, §2

On to `CC(CCn1cc2cc(-c3ccc(OCCCN4CCOCC4)cc3)ccc2n1)(C(=O)NO)S(C)(=O)=O.O=CO` (racemic) [RE1, (RS)—N-hydroxy-2-methylsulfonyl-2-methyl-4-{5-[4-(3-morpholin-4-yl-propoxy)-phenyl]-indazol-2-yl}-butanamide formic acid salt], for which the MIC is 0.5 µg/mL in assay [1], 4 µg/mL in assay [2], 4 µg/mL in assay [3] and 1 µg/mL in assay [4].
As for `CC(CCn1cc2cc(-c3ccc(OCCN4CCOCC4)cc3)ccc2n1)(C(=O)NO)S(C)(=O)=O.O=CO` (racemic) [RE2, (RS)—N-hydroxy-2-methylsulfonyl-2-methyl-4-{5-[4-(2-morpholin-4-yl-ethoxy)-phenyl]-indazol-2-yl}-butanamide formic acid salt], the MIC in assay [1] came out at 1 µg/mL; in assay [2], 4 µg/mL; in assay [3], 4 µg/mL; in assay [4], 1 µg/mL.
In the case of `CC(CCn1cc2cc(-c3ccc(OCCN4CCOCC4)cc3F)ccc2n1)(C(=O)NO)S(C)(=O)=O.O=CO` (racemic) [RE3, (RS)-4-{5-[2-fluoro-4-(2-morpholin-4-yl-ethoxy)-phenyl]-indazol-2-yl}-N-hydroxy-2-methylsulfonyl-2-methyl-butanamide formic acid salt], the MIC in assay [1] was found to be 1 µg/mL; in assay [2], 8 µg/mL; in assay [3] it was 8 µg/mL; in assay [4] it was 2 µg/mL.
As for `CC#CCOc1ccc2nn(CCC(C)(C(=O)NO)S(C)(=O)=O)cc2c1` (racemic) [RE4, (RS)-4-(5-but-2-ynyloxy-indazol-2-yl)-N-hydroxy-2-methylsulfonyl-2-methyl-butanamide], the MIC stood at 4 µg/mL (≈ 10.5 µM) in assay [1], 8 µg/mL (≈ 21.1 µM) in assay [2], 32 µg/mL (≈ 84.3 µM) in assay [3] and 8 µg/mL (≈ 21.1 µM) in assay [4].
As to `CC(CCn1cc2cc(CCc3ccccc3)ccc2n1)(C(=O)NO)S(C)(=O)=O` (racemic) [RE5, (RS)—N-hydroxy-2-methylsulfonyl-2-methyl-4-(5-phenethyl-indazol-2-yl)-butanamide], the MIC stood at 0.5 µg/mL (≈ 1.2 µM) in assay [1], 8 µg/mL (≈ 19.3 µM) in assay [2], 0.25 µg/mL (≈ 0.602 µM) in assay [3] and 2 µg/mL (≈ 4.81 µM) in assay [4].
`CC(CCn1cc2cc(-c3ccc(-c4ncco4)cc3)ccc2n1)(C(=O)NO)S(C)(=O)=O.O=CO` (racemic) [RE6, (RS)—N-hydroxy-2-methylsulfonyl-2-methyl-4-[5-(4-oxazol-2-yl-phenyl)-indazol-2-yl]-butanamide formic acid salt]: the minimal inhibitory concentration (MIC) in assay [1] turned out to be 0.125 µg/mL; in assay [2], 8 µg/mL; in assay [3], 4 µg/mL; in assay [4], 0.25 µg/mL.
As to `COc1cccc(-c2ccc3nn(CCC(C)(C(=O)NO)S(C)(=O)=O)cc3c2)c1F` (racemic) [RE7, (RS)-4-(5-(2-fluoro-3-methoxyphenyl)-2H-indazol-2-yl)-N-hydroxy-2-methyl-2-(methylsulfonyl)butanamide], the MIC in assay [1] is 0.125 µg/mL (≈ 0.287 µM); in assay [2] it was 2 µg/mL (≈ 4.59 µM); in assay [3], 0.5 µg/mL (≈ 1.15 µM); in assay [4], 0.125 µg/mL (≈ 0.287 µM).
For the compound `C[C@@](CCn1cc2c(F)c(C#CC#C[C@H]3C[C@@H]3CO)ccc2n1)(C(=O)NO)S(C)(=O)=O` (relative stereo) [Example 18, (R)-4-{4-fluoro-5-[4-((1S*,2S*)-2-hydroxymethyl-cyclopropyl)-buta-1,3-diynyl]-indazol-2-yl}-N-hydroxy-2-methylsulfonyl-2-methyl-butanamide], the MIC amounted to 0.125 µg/mL (≈ 0.279 µM) in assay [1], 0.5 µg/mL (≈ 1.12 µM) in assay [2], 4 µg/mL (≈ 8.94 µM) in assay [3] and 0.125 µg/mL (≈ 0.279 µM) in assay [4].
As to `C[C@@](CCn1cc2cc(-c3ccc(C#C[C@H]4C[C@@H]4CO)cc3)ccc2n1)(C(=O)NO)S(C)(=O)=O` (relative stereo) [Example 60, (R)—N-hydroxy-4-(5-(4-(((1S*,2S*)-2-(hydroxymethyl)cyclopropyl)ethynyl)phenyl)-2H-indazol-2-yl)-2-methyl-2-(methylsulfonyl)butanamide], the MIC in assay [1] is at most 0.063 µg/mL; in assay [2] it was 0.5 µg/mL (≈ 1.04 µM); in assay [3] it was at most 0.063 µg/mL; in assay [4], 0.125 µg/mL (≈ 0.26 µM).
As for `C[C@@](CCn1cc2cc(C#CC#C[C@@H]3CC[C@H](N)CO3)ccc2n1)(C(=O)NO)S(C)(=O)=O` (relative stereo) [Example 61, (R)-4-(5-(((2S*,5S*)-5-aminotetrahydro-2H-pyran-2-yl)buta-1,3-diyn-1-yl)-2H-indazol-2-yl)-N-hydroxy-2-methyl-2-(methylsulfonyl)butanamide], the MIC in assay [1] was 2 µg/mL (≈ 4.36 µM); in assay [2], 1 µg/mL (≈ 2.18 µM); in assay [3], over 8 µg/mL; in assay [4], 4 µg/mL (≈ 8.72 µM).
`COc1ccc(-c2ccc3nn(CC[C@](C)(C(=O)NO)S(C)(=O)=O)cc3c2)c(F)c1` [Example 1, (R)-4-[5-(2-fluoro-4-methoxy-phenyl)-indazol-2-yl]-N-hydroxy-2-methylsulfonyl-2-methyl-butanamide]: the MIC in assay [1] is 0.063 µg/mL (≈ 0.145 µM); in assay [2], 2 µg/mL (≈ 4.59 µM); in assay [3] it was 1 µg/mL (≈ 2.3 µM); in assay [4], 0.063 µg/mL (≈ 0.145 µM).
For the compound `COc1ccc(-c2ccc3nn(CC[C@](C)(C(=O)NO)S(C)(=O)=O)cc3c2)cc1` [Example 2, (R)—N-hydroxy-2-methylsulfonyl-4-[5-(4-methoxy-phenyl)-indazol-2-yl]-2-methyl-butanamide], the MIC was 0.125 µg/mL (≈ 0.299 µM) in assay [1], 4 µg/mL (≈ 9.58 µM) in assay [2], 1 µg/mL (≈ 2.4 µM) in assay [3] and 0.5 µg/mL (≈ 1.2 µM) in assay [4].
The like results for `COc1ccc(-c2cc3cn(CC[C@](C)(C(=O)NO)S(C)(=O)=O)nc3cc2F)cc1` [Example 3, (R)-4-[6-fluoro-5-(4-methoxy-phenyl)-indazol-2-yl]-N-hydroxy-2-methylsulfonyl-2-methyl-butanamide] were, in that order, 0.063 µg/mL (≈ 0.145 µM), 2 µg/mL (≈ 4.59 µM), 0.5 µg/mL (≈ 1.15 µM) and 0.125 µg/mL (≈ 0.287 µM).
Take `COc1ccc(-c2ccc3nn(CC[C@](C)(C(=O)NO)S(C)(=O)=O)cc3c2F)cc1` [Example 4, (R)-4-[4-fluoro-5-(4-methoxy-phenyl)-indazol-2-yl]-N-hydroxy-2-methylsulfonyl-2-methyl-butanamide]: the MIC came out at 0.125 µg/mL (≈ 0.287 µM) in assay [1], 4 µg/mL (≈ 9.19 µM) in assay [2], 2 µg/mL (≈ 4.59 µM) in assay [3] and 0.5 µg/mL (≈ 1.15 µM) in assay [4].
For the compound `COc1ccc(-c2cc3cn(CC[C@](C)(C(=O)NO)S(C)(=O)=O)nc3cc2F)c(F)c1` [Example 5, (R)-4-[6-fluoro-5-(2-fluoro-4-methoxy-phenyl)-indazol-2-yl]-N-hydroxy-2-methylsulfonyl-2-methyl-butanamide], the MIC is 0.063 µg/mL (≈ 0.139 µM) in assay [1], 4 µg/mL (≈ 8.82 µM) in assay [2], 2 µg/mL (≈ 4.41 µM) in assay [3] and 0.063 µg/mL (≈ 0.139 µM) in assay [4].
`COc1ccc(-c2ccc3nn(CC[C@](C)(C(=O)NO)S(C)(=O)=O)cc3c2F)c(F)c1` [Example 6, (R)-4-[4-fluoro-5-(2-fluoro-4-methoxy-phenyl)-indazol-2-yl]-N-hydroxy-2-methylsulfonyl-2-methyl-butanamide]: the MIC in assay [1] came out at 0.125 µg/mL (≈ 0.276 µM); in assay [2], 4 µg/mL (≈ 8.82 µM); in assay [3] it was 2 µg/mL (≈ 4.41 µM); in assay [4], 0.5 µg/mL (≈ 1.1 µM).
For `C[C@@](CCn1cc2cc(C#Cc3ccc(CN4CCOCC4)cc3)ccc2n1)(C(=O)NO)S(C)(=O)=O.O=CO` [Example 7, (R)—N-hydroxy-2-methylsulfonyl-2-methyl-4-[5-(4-morpholin-4-ylmethyl-phenylethynyl)-indazol-2-yl]-butanamide formate] the same measures were 0.25 µg/mL, 2 µg/mL, 0.5 µg/mL and 0.125 µg/mL.
For `C[C@@](CCn1cc2cc(-c3ccc(OC(F)(F)F)cc3)ccc2n1)(C(=O)NO)S(C)(=O)=O` [Example 8, (R)—N-hydroxy-2-methylsulfonyl-2-methyl-4-[5-(4-trifluoromethoxy-phenyl)-indazol-2-yl]-butanamide] the same measures were 0.25 µg/mL (≈ 0.53 µM), 4 µg/mL (≈ 8.48 µM), 0.125 µg/mL (≈ 0.265 µM) and 0.5 µg/mL (≈ 1.06 µM).
In the case of `CSc1ccc(-c2ccc3nn(CC[C@](C)(C(=O)NO)S(C)(=O)=O)cc3c2)c(F)c1` [Example 9, (R)-4-[5-(2-fluoro-4-methylsulfanyl-phenyl)-indazol-2-yl]-N-hydroxy-2-methylsulfonyl-2-methyl-butanamide], the MIC in assay [1] came to 0.063 µg/mL (≈ 0.14 µM); in assay [2] it was 2 µg/mL (≈ 4.43 µM); in assay [3] it was 0.25 µg/mL (≈ 0.554 µM); in assay [4], 0.063 µg/mL (≈ 0.14 µM).
Turning to `C[C@@](CCn1cc2cc(C#Cc3ccc(C4(N)COC4)cc3)ccc2n1)(C(=O)NO)S(C)(=O)=O.Cc1ccc(S(=O)(=O)O)cc1` [Example 10, (R)-4-{5-[4-(3-amino-oxetan-3-yl)-phenylethynyl]-indazol-2-yl}-N-hydroxy-2-methylsulfonyl-2-methyl-butanamide toluene-4-sulfonate], the MIC in assay [1] was 0.5 µg/mL; in assay [2] it was 2 µg/mL; in assay [3] it was 2 µg/mL; in assay [4], 0.5 µg/mL.
`CN(C)c1ccc(-c2ccc3nn(CC[C@](C)(C(=O)NO)S(C)(=O)=O)cc3c2)cc1` [Example 11, (R)-4-[5-(4-dimethylamino-phenyl)-indazol-2-yl]-N-hydroxy-2-methylsulfonyl-2-methyl-butanamide]: the MIC amounted to 0.063 µg/mL (≈ 0.146 µM) in assay [1], 8 µg/mL (≈ 18.6 µM) in assay [2], 2 µg/mL (≈ 4.65 µM) in assay [3] and 0.063 µg/mL (≈ 0.146 µM) in assay [4].
